The text below walks through data of patent publication US20090298848A1, “Methods and Compositions for Treating Barth Syndrome, Cardiomyopathy, Mitochondrial Diseases and Other Conditions” (CORTENDO INVEST AB,, priority 2006, published 2009).

For data set [1] the following is noted: in vivo, cited from earlier work.
The conditions of data set [2]: cited from earlier work.
The test system of a further data set is testosterone. Description: Testosterone suppression after single dose in rats. It is filed as in vivo.
In another data set the test system is corticosterone. Description: Serum corticosterone reduction after oral dosing in rats. Type of data set: in vivo. The note with it: 200 mg drug/kg body weight, within 4 hours of oral dosing.
The next data set deals with hepatic cardiolipin. In words: Measurement of hepatic cardiolipin following 91 days dosing in Beagle dogs. The note with it: male Beagle dogs, vs placebo. It is filed as in vivo. On the procedure:
Male Beagle dogs were treated with empty gelatin capsules (Placebo) or gelatin capsules containing sufficient 2S,4R enantiomer of ketoconazole to provide a dose of 20 mg/kg body weight. After 91 days of therapy, the amount of cardiolipin present in the livers of the dogs was determined. The amount of cardiolipin with fatty acids of the different indicated classes was determined independently. SFA, saturated fatty acids; MUFA, […] fatty acids; PUFA, poly-unsaturated fatty acid; n3, fatty acids in which the first double bond is at C3; n6, fatty acids in which the first double bond is at C6; n9, fatty acids in which the first double bond is at C9.
Male Beagle dogs were treated with empty gelatin capsules (Placebo) or gelatin capsules containing sufficient 2S,4R enantiomer of ketoconazole to provide a dose of 20 mg/kg body weight. After 91 days of therapy, the amount of cardiolipin present in the livers of the dogs was determined. The amount of cardiolipin with fatty acids of the different indicated classes was determined independently. The different classes are arranged according to the proportion that they are found in the placebo treated animals.
The effect of the 2S,4R enantiomer of ketoconazole enantiomers on cardiolipin levels in Beagle dogs was determined. The dogs were approximately 6-7 months of age at the initiation of the experiment and weighed 8-10 kg. To generate the results shown in FIGS. 1 and 2, eight male beagle dogs were used. Four of these dogs were dosed daily with an empty capsule, and four dogs were dosed with a gelatin capsule containing sufficient 2S,4R enantiomer of ketoconazole for each dog to receive 20 mg/kg body weight of the 2S,4R enantiomer of ketoconazole. The capsules were prepared weekly, placed in a labeled pill bottle and stored at 23° C.±3° C. until dispensed for dosing. […] Lipid content of the livers was determined using a combination of high pressure liquid chromatography (HPLC) and mass spectrometry. […]

A further data set concerns plasma cholesterol. In words: Plasma cholesterol suppression in rats. Type of data set: in vivo. The settings on record: 200 mg drug/kg body weight.
For data set [3] the following is noted: normal volunteers, 200 mg dose of the racemic mixture, oral; cited from earlier work.
Data set [4] can be described thus: Toxicology of DIO-902 in dogs, oral dosing for 28 days. The note with it: oral doses up to 20 mg/kg/day for 28 days.
The nature of data set [5]: Oral pharmacokinetics in dogs.
The mark [6] stands for this setting: patients with Cushing's syndrome.

Read-outs that look alike come from different tables or passages of the source. Where only a bound is given, the exact number is not on record here.

In the case of `CC(=O)N1CCN(c2ccc(OCC3COC(Cn4ccnc4)(c4ccc(Cl)cc4Cl)O3)cc2)CC1` (racemic) [racemic ketoconazole, 1-acetyl-4-[4-[[2-(2,4-dichlorophenyl)-2-[(1H-imidazol-1-yl)-methyl]-1,3-dioxolan-4-yl]methoxy]phenyl]piperazine], in data set [1], the “1,25 dihydroxy Vitamin D” value is listed as “reduces”, the hepatotoxicity entry is listed as “associated with hepatotoxicity” and the testosterone result is reported as “reduces”. The hepatotoxicity entry in data set [1] (listed as racemic mixture) is recorded as “can cause hepatoxicity”. Besides, in [2] (human, in vivo), the cortisol synthesis result is recorded as “inhibits cortisol synthesis” and the plasma cortisol result is on record as “decrease plasma cortisol”. For the same compound, in data set [2] (humans (Sonino et al. 1991; Gylling et al. 1993)), the “cholesterol levels in humans” value is reported as “lower cholesterol levels”. In addition, in [2] (setting [6]), the blood pressure entry is “reduces”, the cholesterol result is on record as “reduces” and the glucose entry was “reduces”.
On to `CC(=O)N1CCN(c2ccc(OC[C@@H]3CO[C@@](Cn4ccnc4)(c4ccc(Cl)cc4Cl)O3)cc2)CC1` (relative stereo) [DIO-902, 2S,4R cis-1-acetyl-4-[4-[[2-(2,4-dichlorophenyl)-2-(1H-imidazol-1-ylmethyl)-1,3-dioxolan-4-yl]methoxyl]phenyl]piperazine], for which, in the data set with testosterone (200 mg drug/kg body weight), the “time for testosterone levels to return to normal” value is at most 8 h and the “time to testosterone suppression after dosing” value is given as “within four hours”. Also, the testosterone level in the data set with testosterone (single dose 200 mg drug/kg body weight) was 10 % of basal. Further, the serum corticosterone level in the data set with corticosterone is on record as 25 % of basal. Also, the “amount of cardiolipin in the livers as a function of the liver wet weight” value in the data set on hepatic cardiolipin (20 mg/kg body weight daily in gelatin capsule) is given as “increased cardiolipin levels”. Besides, in the data set with hepatic cardiolipin (20 mg/kg), the “hepatic cardiolipin by fatty acid carbon chain length and bond number, FIG. 2” value is on record as “able to increase the levels of cardiolipin that contain fatty acids of a wide variety of carbon chain length with different numbers of carbon bonds”; the “hepatic cardiolipin by fatty acid class (SFA, MUFA, PUFA, n3, n6, n9), FIG. 1” value is “able to increase the levels of cardiolipin that contain both saturated and unsaturated fatty acids”. Besides, in the data set with plasma cholesterol, the plasma cholesterol result is given as “suppresses plasma cholesterol”. Moreover, in [3], the maximum plasma concentration entry is “approximately 3.6 μg/mL” and the “time of maximum plasma concentration” value was 2 h. In data set [4], the body weight entry is on record as “reduction in body weight”; the cholesterol result was “trend to a decrease in cholesterol”; the food intake result is reported as “reduction in food intake”; the “other serum chemistry and hematological parameters” value is “no noted changes”. Moreover, the oral availability result in data set [5] is on record as “orally available”.
